Data on 13 molecules can be found in patent US8809627B2, “Plant isoflavone and isoflavanone O-methyltransferase genes” (The Samuel Roberts Noble Foundation, Inc., priority 2006, dated 2014).

One test deals with MtIOMT3. In words: OMT assays with purified recombinant MtIOMT3 (relative activity; HPLC/MS of products). The test is classed as biochemical, Medicago truncatula. Conditions: 50 μM S-adenosyl methionine, 100 μM acceptor substrate; most converted substrate = 100%. The text has this: (§1) Cloning of MtIOMT5 (corresponding to TC 100926, TIGR MtGI v.8) was as described previously (Liu et al., 2005). To obtain a full-length cDNA for MtIOMT2, specific primers designed based upon the M. truncatula genomic sequence were used to amplify the MtIOMT2 coding sequence from M. truncatula root cDNA. The amplified product was cloned into the pGEM®-T easy vector (Promega, Madison Wis.) and sequenced to confirm its identity. MtIOMTs were cloned into the pET28a vector (EMD Biosciences, Inc., San Diego, Calif.) using PCR-based amplification with primers designed to introduce EcoRI and XhoI restriction sites; BamHI and XhoI sites were used for cloning MtIOMT6 due to the presence of an internal EcoRI site in this particular cDNA. Because the EST for MtIOMT8 was missing a start codon, the primer designed to clone MtIOMT8 into pET28a contained an additional 2-nucleotide insertion to generate an ATG start site. All MtIOMTs were expressed as translational fusions to an N-terminal His-tag. Expression of MtIOMTs in E. coli BL21(DE3) and purification by Ni^2+-NTA chromatography were as described (Zubieta et al., 2001). Proteins were dialyzed against 20 mM Tris pH 8.0, 100 mM NaCl, 10% (v/v) glycerol, and 14 mM β-mercaptoethanol. Protein concentration was determined by Bradford assay using BSA as a standard (Bradford, 1976).
(§2) Reactions (200 μl) were performed in 0.1 M potassium phosphate, pH 7.4, 10% (w/v) sucrose, 14 mM β-mercaptoethanol with 10 μM protein, 0.5 mM S-adenosyl-L-methionine, and 80 μM phenolic substrates. All substrates were purchased from Indofine (Hillsborough, N.J.) except 6,7-dihydroxy-4′-methoxyisoflavone, dihydrodaidzein, and vestitol, which were purchased from Apin (Oxfordshire, UK). […] OMT assays were incubated at 30° C. for 2 h and extracted with ethyl acetate. Ethyl acetate extracts were dried under N2 and the resultant material was resuspended in 50-100 μl of methanol. Samples were analyzed on an Agilent 1100 HPLC, equipped with a quaternary pump (model #G1311A), a degasser (model #G1322A), an autosampler (model #G1313A), and a diode array detector (model #G1315A). Samples of 20 μl were applied to an ODS2 reverse-phase column (5 μm particle size, 4.6×250 mm) and eluted in 1% (v/v) phosphoric acid with an increasing gradient of acetonitrile (0-5 min, 25%; 5-35 min, 25-50%; 35-39 min, 50-100%) at a flow rate of 1 ml/min. To resolve the 4′-O-methylated and 7-O-methylated products of genistein, samples were applied to a Phenomenex SYNERGI Polar-RP 80 Å column (4 μm particle size, 4.6×250 mm) and eluted in water with an increasing gradient of acetonitrile (0-5 min, 20%; 5-17 min, 20-38%; 17-33 min, 38%; 33-45 min, 38-56%; 45-46 min, 56-100%) at a flow rate of 1 ml/min. Chiral chromatography was performed as described (Liu et al., 2005).
(§3) For determination of specific activities, reactions (100 μl) were performed in 0.1 M potassium phosphate, pH 7.4, 10% (w/v) sucrose, 14 mM β-mercaptoethanol with 0.2-μg protein, 50 μM S-adenosyl-L-methionine (0.025 μCi ^14C-SAM per reaction), and 100 μM substrate. Reactions were incubated at 30° C. for 15-25 min and stopped by addition of 4 μl of 1N HCl. Products were extracted into 500 μl of ethyl acetate and 400 μl was used for liquid scintillation counting.
(§4) An HP 1100 series II LC system (Hewlett-Packard, Palo Alto, Calif.) with a photodiode array detector was coupled to a Bruker Esquire ion-trap mass spectrometer (ITMS) equipped with an electrospray ionization source. A reverse phase, C18, 5 μm, 4.6×250 mm column (J. T. Baker, Phillipsburg, N.J.) was used for separations. The mobile phase consisted of 0.1% (v/v) acetic acid using linear gradients of 5-90% acetonitrile (v/v) in 70 min. The flow rate was 0.8 ml/min, and the temperature of the column was kept at 28° C. Both positive- and negative-ion mass spectra were acquired. […]

The subject of the next test is MtIOMT6. In words: OMT assays with purified recombinant MtIOMT6 (relative activity; HPLC/MS of products). Format: biochemical, Medicago truncatula. Conditions: 50 μM S-adenosyl methionine, 100 μM acceptor substrate; most converted substrate = 100%.
From the text: as §1, §2, §3, §4

Another test deals with T1, MsI7OMT (Medicago sativa, UniProt O24529).
T1 sequence (O24529 1-352): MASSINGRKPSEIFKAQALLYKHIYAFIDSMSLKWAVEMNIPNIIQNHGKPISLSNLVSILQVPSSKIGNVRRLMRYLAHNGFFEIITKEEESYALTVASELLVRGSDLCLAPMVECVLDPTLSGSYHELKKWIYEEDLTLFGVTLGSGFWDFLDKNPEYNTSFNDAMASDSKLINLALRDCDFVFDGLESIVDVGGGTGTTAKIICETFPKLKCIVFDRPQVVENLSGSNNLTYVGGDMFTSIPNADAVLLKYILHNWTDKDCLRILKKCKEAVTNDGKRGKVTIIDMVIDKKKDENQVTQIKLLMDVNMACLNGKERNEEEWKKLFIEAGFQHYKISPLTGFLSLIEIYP
Conditions: reported by He et al., 1998; cited from earlier work.

As for `O=c1oc2cc(O)ccc2c2oc3cc(O)ccc3c12` [Coumestrol], in the test with MtIOMT3, the “Relative activity, MtIOMT3” value is listed as 0%. Further, in the test on MtIOMT6, the “Relative activity, MtIOMT6” value is on record as 0%.

Consider `COc1cc2c(=O)c(-c3ccc(O)cc3)coc2cc1O` [Glycitein], for which the “Relative activity, MtIOMT3” value in the test on MtIOMT3 was 51.6%. The “Relative activity, MtIOMT6” value in the test with MtIOMT6 amounted to 0%.

For `O=c1c(-c2ccc(O)cc2)coc2cc(O)ccc12` [Daidzein], in the test on MtIOMT3, the “Relative activity, MtIOMT3” value is recorded as “≦1%”. Also, the “Relative activity, MtIOMT6” value in the test with MtIOMT6 was 0%.

As to `O=c1c(-c2ccc(O)cc2)coc2cc(O)cc(O)c12` [Genistein], in the test on MtIOMT3, the “Relative activity, MtIOMT3” value is 73.7%. The “Relative activity, MtIOMT6” value in the test on MtIOMT6 is recorded as 0%.

`COc1ccc(-c2coc3cc(O)c(O)cc3c2=O)cc1` [6,7-dihydroxy,4′-methoxyisoflavone]: the “Relative activity, MtIOMT3” value in the test with MtIOMT3 stood at 0%. Also, the “Relative activity, MtIOMT6” value in the test with MtIOMT6 turned out to be 0%.

In the case of `O=c1c(O)c(-c2cc(O)c(O)c(O)c2)oc2cc(O)cc(O)c12` [Myricetin], the “Relative activity, MtIOMT3” value in the test with MtIOMT3 amounted to 0%. Moreover, the “Relative activity, MtIOMT6” value with MtIOMT6 worked out at 0%.

`O=c1cc(-c2ccc(O)cc2)oc2cc(O)cc(O)c12` [Apigenin]: the “Relative activity, MtIOMT3” value with MtIOMT3 was found to be 0%. Further, in the test on MtIOMT6, the “Relative activity, MtIOMT6” value was determined as 0%.

Regarding `COc1ccc(C2COc3cc(O)ccc3C2)c(O)c1` (stereo not drawn) [Vestitol], in the test on MtIOMT3, the “Relative activity, MtIOMT3” value was 0%. Besides, the “Relative activity, MtIOMT6” value in the test with MtIOMT6 amounted to 66.2%.

Turning to `O=c1cc(-c2ccc(O)cc2)oc2cc(O)ccc12` [7,4′-dihydroxyflavone], the “Relative activity, MtIOMT3” value in the test on MtIOMT3 turned out to be 0%. Also, in the test on MtIOMT6, the “Relative activity, MtIOMT6” value is listed as 0%.

Turning to `O=c1c(-c2ccc(O)cc2)coc2cc(O)c(O)cc12` [6,7,4′-trihydroxyisoflavone], the “Relative activity, MtIOMT3” value with MtIOMT3 is recorded as 100%. For the same molecule, the “Relative activity, MtIOMT6” value in the test with MtIOMT6 is reported as 0%. Moreover, at MsI7OMT, the “Activity of MsI7OMT relative to the activity with daidzein” value was 136 % of the activity with daidzein.

`O=c1c(-c2ccc(O)c(O)c2)coc2cc(O)ccc12` [7,3′,4′-trihydroxyisoflavone]: the “Relative activity, MtIOMT3” value in the test with MtIOMT3 is reported as 52.9%. The “Relative activity, MtIOMT6” value in the test on MtIOMT6 was 0%.

In the case of `O=C1C[C@@H](c2ccc(O)cc2)Oc2cc(O)cc(O)c21` [Naringenin], the “Relative activity, MtIOMT3” value in the test on MtIOMT3 is given as 0%. Moreover, the “Relative activity, MtIOMT6” value in the test on MtIOMT6 stood at 0%.

Consider `O=C1c2ccc(O)cc2OCC1c1ccc(O)cc1` (stereo not drawn) [Dihydrodaidzein], for which the “Relative activity, MtIOMT3” value in the test with MtIOMT3 is 49.4%. The “Relative activity, MtIOMT6” value with MtIOMT6 was determined as 100%.
